According to publication PMC6272341, “Synthesis and Biological Evaluation of N-Alkoxyphenyl-3-hydroxynaphthalene-2-carboxanilides” (Molecules, 2015):
In brackets after ≈: the same amount, converted by molar mass. Several values for one entry are separate records, joined by “and”; a condition that tells them apart may be missing. Identical values can stand only once. Like-named read-outs stand apart in the source and are kept apart here.

What was measured:
[1] = system: M. tuberculosis H37Ra ATCC 25177; test: In vitro antimycobacterial evaluation, alamarBlue (MIC); type: cell-based; conditions: Mycobacterium tuberculosis, 168 h, read-out: MIC MT
Description: The evaluation of the in vitro antimycobacterial activity of the compounds was performed against M. tuberculosis H37Ra ATCC 25177 [25] and clinical isolate of M. avium subsp. paratuberculosis CIT03 [26], see Table 1. The activity of compounds was expressed as the minimum inhibitory concentration (MIC) that is defined for mycobacteria as a 90% or greater (IC90) reduction of growth in comparison with the control. The MIC/IC90 value is routinely and widely used in bacterial assays, being a standard detection limit according to the Clinical and Laboratory Standards Institute.
Mycobacterium tuberculosis H37Ra ATCC 25177 and well characterised clinical isolate M. avium subsp. paratuberculosis CIT03 were grown in Middlebrook broth (MB), supplemented with Oleic-Albumin-Dextrose-Catalase supplement (Becton Dickinson, Oxford, UK) and mycobactin J (2 μg/mL). Identification of these isolates was performed using biochemical and molecular protocols. At log phase growth, a culture sample (10 mL) was centrifuged at 15,000 rpm/20 min using a bench top centrifuge (Model CR 4-12, Jouan Inc., Winchester, VA, USA). Following removal of the supernatant, the pellet was washed in fresh Middlebrook 7H9GC broth and re-suspended in fresh supplemented MB (10 mL). The turbidity was adjusted to match McFarland standard No. 1 (3 × 10^8 cfu) with MB broth. A further 1:20 dilution of the culture was then performed in MB broth. The antimicrobial susceptibility of all three mycobacterial species was investigated in a 96-well plate format. In these experiments, sterile deionised water (300 µL) was added to all outer-perimeter wells of the plates to minimize evaporation of the medium in the test wells during incubation. Sample wells were composed of 100 µL of test compound dilution and 100 µL of the bacterial stock being tested against. Dilutions of each compound were prepared in duplicate. For all synthesized compounds, final concentrations ranged from 1000 μg/mL to 8 μg/mL. All compounds were prepared in DMSO and subsequent dilutions were made in supplemented MB. The plates were sealed with parafilm and incubated at 37 °C, for 7 days in the case of M. tuberculosis and 11 days in the case of M. avium subsp. paratuberculosis. Following incubation, a 10% addition of alamarBlue (AbD Serotec, Kidlington, UK) was mixed into each well and readings at 570 nm and 600 nm were taken, initially for background subtraction and subsequently after 24 h re-incubation. The background subtraction is necessary for strongly coloured compounds, where the colour may interfere with the interpretation of any colour change. For non-interfering compounds, a blue colour in the well was interpreted as an absence of growth and a pink colour was scored as growth. […] The MIC value is routinely and widely used in bacterial assays and is a standard detection limit according to the Clinical and Laboratory Standards Institute (CLSI,). Rifampicin (Sigma-Aldrich) was used as the standard as it is clinically used antimycobacterial drugs.

[2] = system: clinical isolate of M. avium subsp. paratuberculosis CIT03; test: as above; type: cell-based; conditions: Mycobacterium avium, 264 h, read-out: MIC MAP
[3] = system: photosynthetic electron transport in spinach chloroplasts; test: Inhibition of photosynthetic electron transport (PET), DCPIP photoreduction (Hill reaction); type: biochemical, spinach (Spinacia oleracea L.)
Description: The PET inhibiting activity of the compounds was expressed by IC50 values. […] The aqueous solubility of the para-substituted compounds was limited; therefore IC50 values could not be determined due to precipitation of compounds during experiment. […]
Chloroplasts were prepared from spinach (Spinacia oleracea L.) according to Masarovicova and Kralova. The inhibition of photosynthetic electron transport (PET) in spinach chloroplasts was determined spectrophotometrically (Genesys 6, Thermo Scientific Corporation), using an artificial electron acceptor 2,6-dichlorophenol-indophenol (DCPIP) according to Kralova et al., and the rate of photosynthetic electron transport was monitored as a photoreduction of DCPIP. The measurements were carried out in phosphate buffer (20.0 mM, pH 7.2) containing sucrose (0.4 M), MgCl2 (5.0 mM) and NaCl (15.0 mM). The chlorophyll content was 30 mg/L in these experiments and the samples were irradiated (~100 W/m^2 with 10 cm distance) with a halogen lamp (250 W) using a 4 cm water filter to prevent warming of the samples (suspension temperature 22 °C). The studied compounds were dissolved in DMSO due to their limited aqueous solubility. The applied DMSO concentration (up to 4%) had negligible effect on the photochemical activity in isolated spinach chloroplasts (observed differences in DCPIP photoreduction due DMSO addition were within experimental error). The inhibitory efficiency of the studied compounds was expressed by IC50 values, i.e., by molar concentration of the compounds causing 50% decrease in DCPIP photoreduction relative to the untreated control. […] All reagents used in this study were of analytical grade and were purchased from Sigma.

[4] = system: human monocytic leukemia THP-1 cells; conditions: 24 h
[5] = system: S. aureus ATCC 29213; test: In vitro antibacterial susceptibility testing, broth dilution micro-method (MIC); conditions: Staphylococcus aureus, ATCC29213, 24 h, read-out: MIC SA
[6] = system: methicillin-resistant S. aureus clinical isolate MRSA 63718; test: as above; conditions: for MIC: Staphylococcus aureus, MRSA, read-out: MIC MRSA 63718, clinical isolate MRSA 63718
[7] = system: methicillin-resistant S. aureus clinical isolate SA 630; test: as above; conditions: 24 h; for MIC: Staphylococcus aureus, MRSA, read-out: MIC MRSA SA 630, clinical isolate MRSA SA 630, 37 °C, MH broth
[8] = system: methicillin-resistant S. aureus clinical isolate SA 3202; test: as above; conditions: 24 h; for MIC: Staphylococcus aureus, MRSA, read-out: MIC MRSA 3202, clinical isolate MRSA 3202, 37 °C, MH broth
[9] = M. tuberculosis H37Ra, 7 days, 37 °C, alamarBlue, MIC/IC90
[10] = M. avium subsp. paratuberculosis CIT03, 11 days, 37 °C, alamarBlue, MIC/IC90

Row | SMILES | MIC [1, 9] | MIC [2] | IC50 [3] | LD50 [4] | MIC [5] | MIC ([6]; 24 h, 24 h, 37 °C, MH broth) | MIC [7] | MIC [8] | MIC [2, 10] | activity fold higher than that of ampicillin ([6]; antibacterial activity against MRSA strains versus ampicillin) | MIC MRSA 63718 ([6]; clinical isolate MRSA 63718, 24 h, 37 °C, MH broth) | MIC MRSA SA 630 ([7]; clinical isolate MRSA SA 630, 37 °C, MH broth) | MIC MRSA 3202 ([8]; clinical isolate MRSA 3202, 37 °C, MH broth) | MIC [1]
1 | CCOc1ccccc1NC(=O)c1cc2ccccc2cc1O [Compound 4a, N-(2-Ethoxyphenyl)-3-hydroxynaphthalene-2-carboxamide] | 813 µM (≈ 250 µg/mL) | 813 µM (≈ 250 µg/mL) | 76.1 µM | >30 µM | 832 µM (≈ 256 µg/mL) | 832 µM (≈ 256 µg/mL) | 832 µM (≈ 256 µg/mL) | 832 µM (≈ 256 µg/mL) | – | – | – | – | – | –
2 | CC(C)Oc1ccc(NC(=O)c2cc3ccccc3cc2O)cc1 [Compound 7c, 3-Hydroxy-N-[4-(prop-2-yloxy)phenyl]naphthalene-2-carboxamide] | 389 µM (≈ 125 µg/mL) | – | – | >30 µM | 796 µM (≈ 256 µg/mL) | 796 µM (≈ 256 µg/mL) | 796 µM (≈ 256 µg/mL) | 796 µM (≈ 256 µg/mL) | 778 µM (≈ 250 µg/mL) | – | – | – | – | –
3 | CC(C)Oc1ccccc1NC(=O)c1cc2ccccc2cc1O [Compound 7a, 3-Hydroxy-N-[2-(prop-2-yloxy)phenyl]naphthalene-2-carboxamide] | 389 µM (≈ 125 µg/mL) | – | 138 µM | >30 µM | 796 µM (≈ 256 µg/mL) | 796 µM (≈ 256 µg/mL) | 796 µM (≈ 256 µg/mL) | 796 µM (≈ 256 µg/mL) | 778 µM (≈ 250 µg/mL) | – | – | – | – | –
4 | CCCCOc1ccccc1NC(=O)c1cc2ccccc2cc1O [Compound 6a, N-(2-Butoxyphenyl)-3-hydroxynaphthalene-2-carboxamide] | 373 µM (≈ 125 µg/mL) | – | 182 µM | >30 µM | 763 µM (≈ 256 µg/mL) | 763 µM (≈ 256 µg/mL) | 763 µM (≈ 256 µg/mL) | 763 µM (≈ 256 µg/mL) | 745 µM (≈ 250 µg/mL) | – | – | – | – | –
5 | COc1ccccc1NC(=O)c1cc2ccccc2cc1O [Compound 3a, 3-hydroxy-N-(2-methoxyphenyl)naphthalene-2-carboxamide] | 51 µM (≈ 15 µg/mL) | – | 59.5 µM | – | 55 µM (≈ 16.1 µg/mL) | 55 µM (≈ 16.1 µg/mL) | 55 µM (≈ 16.1 µg/mL) | 55 µM (≈ 16.1 µg/mL) | 205 µM (≈ 60.1 µg/mL) | – | – | – | – | –
6 | CCCCOc1ccc(NC(=O)c2cc3ccccc3cc2O)cc1 [Compound 6c, N-(4-Butoxyphenyl)-3-hydroxynaphthalene-2-carboxamide] | 745 µM (≈ 250 µg/mL) | 745 µM (≈ 250 µg/mL) | – | >30 µM | 763 µM (≈ 256 µg/mL) | 763 µM (≈ 256 µg/mL) | 763 µM (≈ 256 µg/mL) | 763 µM (≈ 256 µg/mL) | – | – | – | – | – | –
7 | CCCOc1cccc(NC(=O)c2cc3ccccc3cc2O)c1 [Compound 5b, 3-Hydroxy-N-(3-propoxyphenyl)naphthalene-2-carboxamide] | 778 µM (≈ 250 µg/mL) | 778 µM (≈ 250 µg/mL) | 4.8 µM | – | 796 µM (≈ 256 µg/mL) | 796 µM (≈ 256 µg/mL) | 796 µM (≈ 256 µg/mL) | 796 µM (≈ 256 µg/mL) | – | – | – | – | – | –
8 | CCCCOc1cccc(NC(=O)c2cc3ccccc3cc2O)c1 [Compound 6b, N-(3-Butoxyphenyl)-3-hydroxynaphthalene-2-carboxamide] | 745 µM (≈ 250 µg/mL) | 745 µM (≈ 250 µg/mL) | 7.8 µM | 16.5 ± 0.8 µM | 763 µM (≈ 256 µg/mL) | 763 µM (≈ 256 µg/mL) | 763 µM (≈ 256 µg/mL) | 763 µM (≈ 256 µg/mL) | – | – | – | – | – | –
9 | CCCOc1ccc(NC(=O)c2cc3ccccc3cc2O)cc1 [Compound 5c, 3-Hydroxy-N-(4-propoxyphenyl)naphthalene-2-carboxamide] | 778 µM (≈ 250 µg/mL) | 778 µM (≈ 250 µg/mL) | – | >30 µM | 796 µM (≈ 256 µg/mL) | 796 µM (≈ 256 µg/mL) | 796 µM (≈ 256 µg/mL) | 796 µM (≈ 256 µg/mL) | – | – | – | – | – | –
10 | CCCOc1ccccc1NC(=O)c1cc2ccccc2cc1O [Compound 5a, 3-Hydroxy-N-(2-propoxyphenyl)naphthalene-2-carboxamide] | 778 µM (≈ 250 µg/mL) | 778 µM (≈ 250 µg/mL) | 128 µM | – | 12.4 µM (≈ 3.99 µg/mL) | 12 µM (≈ 3.86 µg/mL) | 12 µM (≈ 3.86 µg/mL) | 12 µM (≈ 3.86 µg/mL) | – | ~4 fold | 12.4 µM (≈ 3.99 µg/mL) | 12.4 µM (≈ 3.99 µg/mL) | 12.4 µM (≈ 3.99 µg/mL) | –
11 | O=C(Nc1ccccc1)c1cc2ccccc2cc1O [Compound 2, 3-Hydroxy-N-phenylnaphthalene-2-carboxamide] | – | – | – | >30 µM | 972 µM (≈ 256 µg/mL) | 972 µM (≈ 256 µg/mL) | 972 µM (≈ 256 µg/mL) | 972 µM (≈ 256 µg/mL) | 950 µM (≈ 250 µg/mL) | – | – | – | – | 950 µM (≈ 250 µg/mL)
12 | CCOc1ccc(NC(=O)c2cc3ccccc3cc2O)cc1 [Compound 4c, N-(4-Ethoxyphenyl)-3-hydroxynaphthalene-2-carboxamide] | 813 µM (≈ 250 µg/mL) | 813 µM (≈ 250 µg/mL) | – | >30 µM | 832 µM (≈ 256 µg/mL) | 832 µM (≈ 256 µg/mL) | 832 µM (≈ 256 µg/mL) | 832 µM (≈ 256 µg/mL) | – | – | – | – | – | –
13 | CO[C@H]1/C=C/O[C@@]2(C)Oc3c(C)c(O)c4c(O)c(c(/C=N/N5CCN(C)CC5)c(O)c4c3C2=O)NC(=O)/C(C)=C\C=C\[C@H](C)[C@H](O)[C@@H](C)[C@@H](O)[C@@H](C)[C@H](OC(C)=O)[C@@H]1C [RIF, rifampicin, reference compound] | 10 µM (≈ 8.23 µg/mL) | – | – | – | – | – | – | – | 109 µM (≈ 89.7 µg/mL) | – | – | – | – | –
14 | CN(C)C(=O)Nc1ccc(Cl)c(Cl)c1 [DCMU, 3-(3,4-dichlorophenyl)-1,1-dimethylurea, reference compound] | – | – | ~1.9 µM and 1.9 µM | – | – | – | – | – | – | – | – | – | – | –
15 | CCC(C)Oc1ccc(NC(=O)c2cc3ccccc3cc2O)cc1 (centres unmarked) [Compound 8c, N-[4-(But-2-yloxy)phenyl]-3-hydroxynaphthalene-2-carboxamide] | 89 µM (≈ 29.9 µg/mL) | – | – | >30 µM | 763 µM (≈ 256 µg/mL) | 763 µM (≈ 256 µg/mL) | 763 µM (≈ 256 µg/mL) | 763 µM (≈ 256 µg/mL) | 745 µM (≈ 250 µg/mL) | – | – | – | – | –
16 | COc1ccc(NC(=O)c2cc3ccccc3cc2O)cc1 [Compound 3c, 3-hydroxy-N-(4-methoxyphenyl)naphthalene-2-carboxamide] | 852 µM (≈ 250 µg/mL) | 852 µM (≈ 250 µg/mL) | – | >30 µM | 873 µM (≈ 256 µg/mL) | 873 µM (≈ 256 µg/mL) | 873 µM (≈ 256 µg/mL) | 873 µM (≈ 256 µg/mL) | – | – | – | – | – | –
17 | CC1(C)S[C@@H]2[C@H](NC(=O)[C@H](N)c3ccccc3)C(=O)N2[C@H]1C(=O)O [APC, ampicillin, reference compound] | – | – | – | – | 5.7 µM (≈ 1.99 µg/mL) | > 46 µM | > 46 µM | > 46 µM | – | – | – | – | – | –
